{"source": "PubChem BioAssay (NCI)", "note": "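48-hour exposure; five concentrations; linearly interpolated endpoints. GI50 is the concentration that inhibits growth by half. TGI denotes the concentration required for complete inhibition of growth.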"}
{"tested_on": "SF-268 CNS", "test": "NCI tumour cell line growth inhibition, 48 h", "units": {"GI50": "µM", "TGI": "µM"}}
{"smiles": "C=C(CN1CCN(c2ccc(Cl)cc2F)CC1)c1ccc(C(=O)Nc2ccccc2N)cc1", "GI50": 2.61, "TGI": "> 100"}
{"smiles": "CC(C)=CC(=O)C1c2cccc(O)c2C(=O)c2c(O)cc(C)cc21", "note": "(configuration not stated)", "TGI": 5.3}
{"smiles": "Cc1cccc2c(=O)cc(-c3ccccc3)[nH]c12", "TGI": "> 100"}
{"smiles": "COC(CN1C(=O)c2cccc3cccc(c23)C1=O)OC", "TGI": "> 100"}
{"smiles": "O=C(Nc1ccccc1)NS(=O)(=O)c1ccc(-n2nc3c(c2-c2cccs2)Cc2ccccc2-3)cc1", "GI50": 26, "TGI": "> 100"}
{"smiles": "CCCCOC(=O)C1OC(O[C@H]2CCC3(C)C(CCC4(C)C3CC=C3C5CC(C)(C)CCC5(C(=O)O)CC[C@]34C)C2(C)C)C(OC2OC(CO)C(O)C(O)C2O)C(OC2OC(CO)C(O)C(O)C2O)C1O", "note": "(some centres not stated)", "GI50": 27.7, "TGI": 84.4}
{"smiles": "Cc1nc2ccccc2c(=O)n1-c1ccccc1I", "TGI": "> 100"}
{"smiles": "O=C1C=C(Cl)C(=O)C(c2ccc(Cl)cc2)=C1", "TGI": 42.3}
{"smiles": "CCOc1ccc(NC(=O)C(=O)CC(=O)c2c[n+](=O)c3cc(C)c(C)cc3n2[O-])cc1", "TGI": "> 100"}
{"smiles": "CN1C(=O)C(C)(C)C2(SC(C)(C)C2(C)C)N(C)C1=S", "note": "(configuration not stated)", "TGI": "> 100"}
{"smiles": "Cn1cc(C2=C(c3cn(C)c4ncccc34)C(=O)NC2=O)c2ccccc21", "GI50": 9.13, "TGI": "> 25"}
{"smiles": "CC(=O)NNc1nc(C)c(C(=O)NNC(=O)C(=O)Nc2ccc(Cl)cc2)s1", "TGI": "> 100"}
{"smiles": "CN/N=C(/Cc1occc(=O)c1O)C(=O)Nc1ccccc1C", "TGI": "> 100"}
{"smiles": "COc1cc(/C=N/NC(=O)c2ccc(C(F)(F)F)nc2Nc2ccc(Cl)cc2C)ccc1O", "GI50": 1.78, "TGI": 13.3}
{"smiles": "O=C(N/C(=C\\c1ccc(/C=C(\\NC(=O)c2ccccc2)c2nc3cc([N+](=O)[O-])ccc3[nH]2)cc1)c1nc2cc([N+](=O)[O-])ccc2[nH]1)c1ccccc1", "TGI": "> 100"}
{"smiles": "COc1ccc(C(=O)Cn2c(C(=O)c3ccccc3)nc(-c3ccc(OC)cc3)c2-c2ccc(OC)cc2)cc1", "GI50": 86.4, "TGI": "> 100"}
{"smiles": "CC1=C(C(=O)NCc2ccccc2)C(/C=C/c2ccccc2)C(C(=O)NCc2ccccc2)=C(C)N1", "TGI": "> 100"}
{"smiles": "N#CCCN(CCC#N)c1ccc(/C=C2\\N=C(c3cc([N+](=O)[O-])ccc3Cl)OC2=O)cc1", "TGI": "> 100"}
{"smiles": "CC1(c2ccc(F)cc2)C(C#N)C(=O)NC(=O)C1C#N", "note": "(configuration not stated)", "TGI": "> 100"}
{"smiles": "Cc1ccc(N=Nc2ccc(N(CCC#N)CCC#N)cc2C)c(Br)c1", "TGI": "> 100"}
{"smiles": "Cc1cc(C)nc(NS(=O)(=O)c2ccc(NC(=O)c3ccc(Cl)c4c(Nc5ccc(S(=O)(=O)Nc6nc(C)cc(C)n6)cc5)c5ccccc5nc34)cc2)n1", "TGI": "> 100"}
{"smiles": "COc1ccc2c3c1C(=O)CCCC3CO2", "note": "(configuration not stated)", "TGI": "> 100"}
{"smiles": "N#CC(c1ccc(Cl)cc1)c1cccc(C(C#N)c2ccc(Cl)cc2)n1", "note": "(configuration not stated)", "TGI": "> 100"}
{"smiles": "CCCCCN(CCCCC)CCCNc1c2c(nc3ccc(Cl)cc13)CCCC2", "GI50": 3.67, "TGI": 14.5}
{"smiles": "Cn1c2ccccc2c2c(Nc3ccccc3)c3ccccc3nc21", "GI50": 19.2, "TGI": 53}
{"smiles": "O=S1(=O)c2ccccc2NC(c2ccc3ccccc3c2)CC1c1ccccc1F", "note": "(configuration not stated)", "TGI": "> 100"}
{"tested_on": "OVCAR-3 ovarian", "test": "NCI tumour cell line growth inhibition, 48 h", "units": {"TGI": "µM", "GI50": "µM"}}
{"smiles": "CCN(CCO)CC1CCCC2CCCCC21", "note": "(configuration not stated)", "TGI": "> 100"}
{"smiles": "COC1(OC)CCC2C1C1CCC(OC)(OC)C21", "note": "(configuration not stated)", "TGI": "> 50"}
{"smiles": "NNC(=O)Nc1cccnc1", "TGI": "> 100"}
{"smiles": "CCCCCCCCCCCOc1ccc(C(=O)C(=O)c2ccc(OCCCCCCCCCCC)c(OCCCCCCCCCCC)c2)cc1OCCCCCCCCCCC", "TGI": "> 100"}
{"smiles": "CCOC(=O)C1=C(C)NC(=S)NC1c1ccccc1", "note": "(configuration not stated)", "TGI": "> 100"}
{"smiles": "O=C(/C=C/c1ccccc1)NC1C=Nc2ccc(Cl)cc2NC1=O", "note": "(configuration not stated)", "TGI": 56.4}
{"smiles": "COC1CCC2C(NS(=O)(=O)c3ccc(C)cc3)CCCC2O1", "note": "(configuration not stated) (tested in a mixture with another compound)", "TGI": "> 34.5"}
{"smiles": "CC(C)C/C(CC(=O)CCC(=O)Nc1ccccc1[N+](=O)[O-])=N\\NC(=O)c1cc2ccccc2cc1O", "TGI": 99.3}
{"smiles": "O=C(O)c1ccccc1[Se][Se]c1ccccc1C(=O)O", "TGI": "> 100"}
{"smiles": "CCCCC(=O)OCC(=O)[C@]1(O)Cc2c(O)c3c(c(O)c2[C@@H](OC2CC(NC(=O)C(F)(F)F)C(O)C(C)O2)C1)C(=O)c1c(OC)cccc1C3=O", "note": "(some centres not stated)", "TGI": 20.1}
{"smiles": "O=C(O)CCc1coc2ccc(O)cc12", "TGI": "> 100"}
{"smiles": "C[C@]12CC[C@H](O)CC1=CC[C@@H]1C2CC[C@]2(C)C(=O)N(N)C(=O)CC12", "note": "(some centres not stated)", "TGI": "> 100"}
{"smiles": "Clc1cc2nsnc2c(Cl)n1", "TGI": 33.4}
{"smiles": "N#CC1C(C#N)C2(c3ccccc3)C(c3ccccc3)=NN(c3ccccc3)CC12", "note": "(configuration not stated)", "TGI": "> 100"}
{"smiles": "COc1cc(Cc2cnc(/N=C3\\C(=O)N(CN4CCN(c5c(F)cc6c(=O)c(C(=O)O)cn(C7CC7)c6c5OC)CC4C)c4ccc(F)cc43)nc2N)cc(OC)c1OC", "note": "(configuration not stated)", "GI50": 5.87, "TGI": 22.1}
{"smiles": "C=C(CN1CCN(c2ccc(Cl)cc2F)CC1)c1ccc(C(=O)Nc2ccccc2N)cc1", "GI50": 2.29, "TGI": "> 100"}
{"smiles": "CC(C)=CC(=O)C1c2cccc(O)c2C(=O)c2c(O)cc(C)cc21", "note": "(configuration not stated)", "TGI": 3.7}
{"smiles": "Cc1cccc2c(=O)cc(-c3ccccc3)[nH]c12", "TGI": "> 100"}
{"smiles": "COC(CN1C(=O)c2cccc3cccc(c23)C1=O)OC", "TGI": "> 100"}
{"smiles": "O=C(Nc1ccccc1)NS(=O)(=O)c1ccc(-n2nc3c(c2-c2cccs2)Cc2ccccc2-3)cc1", "GI50": 21.8, "TGI": "> 100"}
{"smiles": "CCCCOC(=O)C1OC(O[C@H]2CCC3(C)C(CCC4(C)C3CC=C3C5CC(C)(C)CCC5(C(=O)O)CC[C@]34C)C2(C)C)C(OC2OC(CO)C(O)C(O)C2O)C(OC2OC(CO)C(O)C(O)C2O)C1O", "note": "(some centres not stated)", "GI50": "> 100", "TGI": "> 100"}
{"smiles": "Cc1nc2ccccc2c(=O)n1-c1ccccc1I", "TGI": "> 100"}
{"smiles": "O=C1C=C(Cl)C(=O)C(c2ccc(Cl)cc2)=C1", "TGI": 34.3}
{"smiles": "CCOc1ccc(NC(=O)C(=O)CC(=O)c2c[n+](=O)c3cc(C)c(C)cc3n2[O-])cc1", "TGI": "> 100"}
{"smiles": "CN1C(=O)C(C)(C)C2(SC(C)(C)C2(C)C)N(C)C1=S", "note": "(configuration not stated)", "TGI": "> 100"}
{"smiles": "Cn1cc(C2=C(c3cn(C)c4ncccc34)C(=O)NC2=O)c2ccccc21", "GI50": 9.93, "TGI": "> 25"}
{"smiles": "CC(=O)NNc1nc(C)c(C(=O)NNC(=O)C(=O)Nc2ccc(Cl)cc2)s1", "TGI": "> 100"}
{"smiles": "CN/N=C(/Cc1occc(=O)c1O)C(=O)Nc1ccccc1C", "TGI": "> 100"}
{"smiles": "COc1cc(/C=N/NC(=O)c2ccc(C(F)(F)F)nc2Nc2ccc(Cl)cc2C)ccc1O", "GI50": 1.74, "TGI": 13}
{"smiles": "O=C(N/C(=C\\c1ccc(/C=C(\\NC(=O)c2ccccc2)c2nc3cc([N+](=O)[O-])ccc3[nH]2)cc1)c1nc2cc([N+](=O)[O-])ccc2[nH]1)c1ccccc1", "TGI": "> 100"}
{"smiles": "COc1ccc(C(=O)Cn2c(C(=O)c3ccccc3)nc(-c3ccc(OC)cc3)c2-c2ccc(OC)cc2)cc1", "GI50": "> 100", "TGI": "> 100"}
{"smiles": "CC1=C(C(=O)NCc2ccccc2)C(/C=C/c2ccccc2)C(C(=O)NCc2ccccc2)=C(C)N1", "TGI": "> 100"}
{"smiles": "N#CCCN(CCC#N)c1ccc(/C=C2\\N=C(c3cc([N+](=O)[O-])ccc3Cl)OC2=O)cc1", "TGI": 70.7}
{"smiles": "CC1(c2ccc(F)cc2)C(C#N)C(=O)NC(=O)C1C#N", "note": "(configuration not stated)", "TGI": "> 100"}
{"smiles": "Cc1ccc(N=Nc2ccc(N(CCC#N)CCC#N)cc2C)c(Br)c1", "TGI": "> 100"}
{"smiles": "Cc1cc(C)nc(NS(=O)(=O)c2ccc(NC(=O)c3ccc(Cl)c4c(Nc5ccc(S(=O)(=O)Nc6nc(C)cc(C)n6)cc5)c5ccccc5nc34)cc2)n1", "TGI": "> 100"}
{"smiles": "COc1ccc2c3c1C(=O)CCCC3CO2", "note": "(configuration not stated)", "TGI": "> 100"}
{"smiles": "N#CC(c1ccc(Cl)cc1)c1cccc(C(C#N)c2ccc(Cl)cc2)n1", "note": "(configuration not stated)", "TGI": "> 100"}
{"smiles": "CCCCCN(CCCCC)CCCNc1c2c(nc3ccc(Cl)cc13)CCCC2", "GI50": 1.96, "TGI": 4.36}
{"smiles": "O=S1(=O)c2ccccc2NC(c2ccc3ccccc3c2)CC1c1ccccc1F", "note": "(configuration not stated)", "TGI": "> 100"}
{"tested_on": "SR leukemia", "test": "NCI tumour cell line growth inhibition, 48 h", "units": {"TGI": "µM"}}
{"smiles": "CCOC(=O)C1=C(C)NC(=S)NC1c1ccccc1", "note": "(configuration not stated)", "TGI": 50.2}
{"smiles": "O=C(/C=C/c1ccccc1)NC1C=Nc2ccc(Cl)cc2NC1=O", "note": "(configuration not stated)", "TGI": 56.3}
{"smiles": "CC(C)C/C(CC(=O)CCC(=O)Nc1ccccc1[N+](=O)[O-])=N\\NC(=O)c1cc2ccccc2cc1O", "TGI": "> 100"}
{"smiles": "C[C@]12CC[C@H](O)CC1=CC[C@@H]1C2CC[C@]2(C)C(=O)N(N)C(=O)CC12", "note": "(some centres not stated)", "TGI": "> 100"}
{"smiles": "N#CC1C(C#N)C2(c3ccccc3)C(c3ccccc3)=NN(c3ccccc3)CC12", "note": "(configuration not stated)", "TGI": "> 100"}
{"smiles": "Cc1cccc2c(=O)cc(-c3ccccc3)[nH]c12", "TGI": "> 100"}
{"smiles": "COC(CN1C(=O)c2cccc3cccc(c23)C1=O)OC", "TGI": "> 100"}
{"smiles": "Cc1nc2ccccc2c(=O)n1-c1ccccc1I", "TGI": "> 100"}
{"smiles": "CCOc1ccc(NC(=O)C(=O)CC(=O)c2c[n+](=O)c3cc(C)c(C)cc3n2[O-])cc1", "TGI": "> 100"}
{"smiles": "CN1C(=O)C(C)(C)C2(SC(C)(C)C2(C)C)N(C)C1=S", "note": "(configuration not stated)", "TGI": "> 100"}
{"smiles": "CC(=O)NNc1nc(C)c(C(=O)NNC(=O)C(=O)Nc2ccc(Cl)cc2)s1", "TGI": "> 100"}
{"smiles": "CN/N=C(/Cc1occc(=O)c1O)C(=O)Nc1ccccc1C", "TGI": "> 100"}
{"smiles": "CC1=C(C(=O)NCc2ccccc2)C(/C=C/c2ccccc2)C(C(=O)NCc2ccccc2)=C(C)N1", "TGI": "> 100"}
{"smiles": "N#CCCN(CCC#N)c1ccc(/C=C2\\N=C(c3cc([N+](=O)[O-])ccc3Cl)OC2=O)cc1", "TGI": 56.7}
{"smiles": "N#CC(c1ccc(Cl)cc1)c1cccc(C(C#N)c2ccc(Cl)cc2)n1", "note": "(configuration not stated)", "TGI": "> 100"}
{"tested_on": "PC-3 prostate", "test": "NCI tumour cell line growth inhibition, 48 h", "units": {"TGI": "µM", "GI50": "µM"}}
{"smiles": "CCN(CCO)CC1CCCC2CCCCC21", "note": "(configuration not stated)", "TGI": "> 100"}
{"smiles": "NNC(=O)Nc1cccnc1", "TGI": "> 100"}
{"smiles": "CCCCC(=O)OCC(=O)[C@]1(O)Cc2c(O)c3c(c(O)c2[C@@H](OC2CC(NC(=O)C(F)(F)F)C(O)C(C)O2)C1)C(=O)c1c(OC)cccc1C3=O", "note": "(some centres not stated)", "TGI": 16.9}
{"smiles": "COc1cc(Cc2cnc(/N=C3\\C(=O)N(CN4CCN(c5c(F)cc6c(=O)c(C(=O)O)cn(C7CC7)c6c5OC)CC4C)c4ccc(F)cc43)nc2N)cc(OC)c1OC", "note": "(configuration not stated)", "GI50": 13, "TGI": 25.7}
